From US12428370B2, “Haloallylamine dual amine oxidase inhibitors” (Syntara Limited, priority 2020, dated 2025)
Structures can show the parent of a compound that is named as a salt.

Assays:
recombinant human MAO-A = target: T1, recombinant human MAO-A (Homo sapiens, UniProt P21397); test: Inhibition of human recombinant MAO-A; type: biochemical; settings: incubation time of 2 hours, tyramine 100 μM
T1 construct: purchased Sigma Aldrich
T1 sequence (P21397 1-527): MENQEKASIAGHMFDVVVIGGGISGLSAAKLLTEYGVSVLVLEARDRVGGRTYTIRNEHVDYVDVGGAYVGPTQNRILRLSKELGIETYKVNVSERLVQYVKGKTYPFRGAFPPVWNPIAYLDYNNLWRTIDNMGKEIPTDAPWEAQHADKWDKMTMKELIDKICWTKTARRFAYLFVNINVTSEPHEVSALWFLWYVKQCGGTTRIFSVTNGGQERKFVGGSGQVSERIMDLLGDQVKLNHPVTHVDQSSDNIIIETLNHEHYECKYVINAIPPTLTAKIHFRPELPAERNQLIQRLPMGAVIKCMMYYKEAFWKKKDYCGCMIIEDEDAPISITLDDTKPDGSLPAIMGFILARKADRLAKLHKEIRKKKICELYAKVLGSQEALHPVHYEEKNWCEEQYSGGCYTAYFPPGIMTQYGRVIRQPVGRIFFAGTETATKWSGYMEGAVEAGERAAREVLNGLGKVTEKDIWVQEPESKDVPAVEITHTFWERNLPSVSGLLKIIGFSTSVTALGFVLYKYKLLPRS
Protocol: Method to Determine the Ability of Compounds of Formula I to Inhibit Human Recombinant MAO-A
The selectivity of the compounds of this invention was tested by determining their ability to inhibit MAO-A activity in vitro, using recombinant human MAO-A (0.003 mg/mL; Sigma Aldrich). The assay was performed in a similar way as for human SSAO/VAP-1 (EXAMPLE 9) except, the substrate tyramine was used at 100 μM in place of benzylamine and the assay was run after an incubation time of 2 hours.

[1] = test system: mdx mice (C57BL/10ScSn-Dmdmdx/J); test: Mouse model of Duchenne muscular dystrophy, Compound 1; type: in vivo; settings: 4.8 mg/kg/day oral
Protocol: Three-months old mdx mice (C57BL/10ScSn-Dmdmdx/J) received daily doses of Compound 1 (in a range of 1-6 mg/kg) administered in the drinking water for thirty days. Untreated, age-matched animals were used as controls. A second cohort of mice aged 10 months-old received daily doses of Compound 1 (in a range of 1-6 mg/kg) administered in the drinking water for ninety days. Untreated, age-matched animals were used as controls.
After the end of each treatment period, animals were sacrificed by cervical dislocation and the skeletal muscle and the heart (minus the atria) collected, flash-frozen in isopentane pre-cooled with liquid nitrogen and stored at −80° C. 12 μm sections from the diaphragm muscle were prepared with a cryotome; multiple serial slides were prepared, containing sections from at least three different levels. The same procedure was used to prepare heart transverse sections.
The amount of the neutrophil and macrophage infiltration, reactive oxygen species (ROS) present and the percentage of fibrotic tissue, was determined as described in EXAMPLE 17.

[2] = test system: BALB/c mice, carrageenan air pouch; test: Carrageenan air pouch model; type: in vivo; settings: single oral application 1 h before carrageenan, read 4 h after, vs carrageenan-treated mice, FIG. 4
Protocol: On day 0, BALB/c mice were shaved at the nape of the neck, anesthetized and 6 mL air sterile (0.2 μm, Sartorius, Cat. 16532) was injected subcutaneously using a 23G×1½ inch needle fixed to a 6 mL syringe. The injection site was sealed with flexible collodion (Macron, Cat. 4580-02). On day 3 a further 3 mL of sterile air was injected into the neck.
3% λ-carrageenan was prepared by dissolving 1.8 g λ-carrageenan (FLUKA, Cat. 22049, lot 1408463) in 60 mL hot de-ionized water. Once dissolved, the solution was cooled to room temperature and the volume made up to 60 mL with de-ionized water.
On day six, PXS-5131 in PBS (vehicle) or PBS only were administered by oral gavage to the mice. One hour after administration, mice were injected with 1 mL 3% λ-carrageenan, using a 23G×2 inch needle fitted to a 1 mL syringe, directly into the air pouch. Sham animals were administered 1 mL de-ionized water instead of λ-carrageenan solution.
Four hours after carrageenan/de-ionized water injection, the mice were anesthetized and 3 mL 10 U/mL heparinized saline was injected into the air pouch. The air pouch was gently massaged, the contents immediately removed using an 18G×1 inch needle fitted to a 5 mL syringe, and the exudate volume recorded. An aliquot of the exudate taken for total white blood cell counting; a second aliquot of the exudate was taken for differential white blood cell counts.

Row | Structure (SMILES) | IC50 (recombinant human MAO-A) [µM] | cardiac fibrosis (picrosirius red staining in the heart muscle) ([1]; ninety days, 10 months-old mdx mice, p<0.0001, FIG. 13) | neutrophil influx in the diaphragm muscle ([1]; thirty days, 3 months-old mdx mice, p<0.0001, FIG. 12A) | macrophage influx in the diaphragm muscle ([1]; thirty days, 3 months-old mdx mice, p<0.0001, FIG. 12B) | reactive oxygen species in the diaphragm muscle ([1]; thirty days, 3 months-old mdx mice, p<0.0001, FIG. 12C) | fibrosis (picrosirius red staining) in the diaphragm muscle ([1]; thirty days, 3 months-old mdx mice, p<0.0001, FIG. 12D) | exudate volume in the air pouch [2] | neutrophil count in the air pouch [2]
1 | N#Cc1ccc(OC/C(=C/F)CN)cc1 [Compound 1, (E)-4-((2-(aminomethyl)-3-fluoroallyl)oxy) benzonitrile] | > 30 | significantly reduces | significantly reduces | significantly reduces | significantly reduces | significantly reduces |  | 
2 | NC/C(=C\F)C1Cc2ccccc2O1 (single isomer, unassigned; (-)) [PXS-5131, (−)-(E)-2-(2,3-Dihydrobenzofuran-2-Yl)-3-Fluoroprop-2-En-1-Amine Hydrochloride] | 0.3 to 3 |  |  |  |  |  | decrease | decrease
